According to publication PMC4045134, “Discovery of Triterpenoids as Reversible Inhibitors of α/β-hydrolase Domain Containing 12 (ABHD12)” (PLoS ONE, 2014):
Entries after “also recorded” stand apart in the source; their conditions may differ.

Columns and labels:
Assay type in all cases: biochemical
CB1R = biological target: T1, CB1R (Rattus norvegicus, UniProt P20272); assay: [35S]GTPγS binding, CB1R antagonist activity, rat cerebellar membranes; conditions: 10 µM
T1 construct: membranes prepared from brain tissue of 4-week-old male rodents were used; from tissue; host or cells: rat cerebellar membranes
T1 sequence (P20272 whole entry): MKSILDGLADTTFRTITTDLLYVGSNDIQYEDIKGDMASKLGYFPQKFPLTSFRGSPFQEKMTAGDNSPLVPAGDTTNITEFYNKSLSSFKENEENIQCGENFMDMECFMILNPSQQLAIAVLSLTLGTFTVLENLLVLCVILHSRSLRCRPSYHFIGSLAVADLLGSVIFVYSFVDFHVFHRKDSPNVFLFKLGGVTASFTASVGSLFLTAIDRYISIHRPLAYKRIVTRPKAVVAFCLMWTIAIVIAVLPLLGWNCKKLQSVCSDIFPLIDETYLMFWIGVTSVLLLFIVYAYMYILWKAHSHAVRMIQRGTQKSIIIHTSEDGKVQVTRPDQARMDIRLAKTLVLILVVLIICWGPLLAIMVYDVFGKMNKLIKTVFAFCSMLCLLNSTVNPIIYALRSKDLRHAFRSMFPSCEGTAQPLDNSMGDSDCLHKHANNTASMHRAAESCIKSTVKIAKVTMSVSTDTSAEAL
Protocol: The CB1 and CB2 receptor activity of the selected compounds (10 µM) were measured using the GTPγS binding assay according to the previously described methods, [33].
(§1) For ABPP experiments (Figure 6C) and cannabinoid receptor activity assays (Table S2), membranes prepared from brain tissue of 4-week-old male rodents were used. The animals were obtained from the National Laboratory Animal Centre, University of Eastern Finland. Approval for the harvesting of animal tissue was obtained from the local welfare officer of the University of Eastern Finland.

hABHD12 = biological target: T2, hABHD12 (Homo sapiens, UniProt Q8N2K0); assay: Fluorescent glycerol assay of 1-AG hydrolysis in hABHD12-HEK293 lysates; conditions: hABHD12-HEK293 lysates
T2 construct: expressed in transfected cells; host or cells: HEK293 (transient)
T2 sequence (Q8N2K0 1-398): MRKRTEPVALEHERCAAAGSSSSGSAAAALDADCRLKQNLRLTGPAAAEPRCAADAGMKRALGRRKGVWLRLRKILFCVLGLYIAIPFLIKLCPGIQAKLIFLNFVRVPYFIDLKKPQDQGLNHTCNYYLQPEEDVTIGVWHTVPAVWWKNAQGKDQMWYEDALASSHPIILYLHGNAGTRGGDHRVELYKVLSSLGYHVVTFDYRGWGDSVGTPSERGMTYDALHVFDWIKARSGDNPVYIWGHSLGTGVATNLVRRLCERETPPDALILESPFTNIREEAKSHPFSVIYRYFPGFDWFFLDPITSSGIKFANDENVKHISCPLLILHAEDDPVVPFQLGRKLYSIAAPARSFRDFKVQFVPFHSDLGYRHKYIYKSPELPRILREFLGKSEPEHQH

ABHD12 = biological target: T3, ABHD12 (Mus musculus, UniProt Q99LR1); assay: Competitive ABPP with TAMRA-FP in mouse brain membrane proteome; conditions: mouse brain membranes, 1 h inhibitor, 1 h probe
T3 construct: the sole serine hydrolase targeted by the triterpenoids in native brain membrane proteome; from tissue; host or cells: mouse whole-brain membranes
T3 sequence (Q99LR1 1-398): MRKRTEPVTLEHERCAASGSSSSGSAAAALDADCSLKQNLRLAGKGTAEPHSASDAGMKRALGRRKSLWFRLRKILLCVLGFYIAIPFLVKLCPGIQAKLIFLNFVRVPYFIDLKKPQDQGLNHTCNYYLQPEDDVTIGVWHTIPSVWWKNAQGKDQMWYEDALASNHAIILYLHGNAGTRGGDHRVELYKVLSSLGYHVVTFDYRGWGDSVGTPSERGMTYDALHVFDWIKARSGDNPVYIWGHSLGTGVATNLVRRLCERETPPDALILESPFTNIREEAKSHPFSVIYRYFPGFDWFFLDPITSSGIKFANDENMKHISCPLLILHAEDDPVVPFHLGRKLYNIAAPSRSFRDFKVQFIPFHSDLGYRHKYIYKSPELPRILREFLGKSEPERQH
Protocol: Competitive ABPP using HEK293 cell lysates and mouse brain membranes was conducted to visualize effects of selected triterpenoids on the binding of the active site serine-targeting fluorescent fluorophosphonate probe TAMRA-FP following outlines of previous protocols, [31]. Briefly, lysates (25 µg) of HEK293 cells with or without (Mock) hABHD12 overexpression or mouse wholebrain membranes (100 µg) were treated for 1 h with DMSO or the inhibitor, after which TAMRA-FP labelling was conducted for 5 min (lysates) or 1 hour (membranes) at RT (final probe concentration 2 µM). The reaction was quenched by addition of gel loading buffer (followed by boiling for 5 min in the case of lysates), after which 10 µg protein (10 µl) was loaded per lane and the proteins were resolved in 10% SDS-PAGE together with standards. TAMRA-FP labeling was visualized (λex 552; λem 575 nm) by a fluorescent reader (FLA-3000 laser fluorescence scanner, Fujifilm, Tokyo, Japan). The intensity of bands was quantified using ImageJ, a freely available image analysis software (http://rsbweb.nih.gov/ij/).
as §1

hABHD6 = biological target: T4, hABHD6 (Homo sapiens, UniProt Q9BV23); assay: Fluorescent glycerol assay in hABHD6-HEK293 lysates; conditions: 10 µM; NI = no inhibition at 10 µM; read-out: hABHD6 Remaining activity % control ± s.e.m (n=3)
T4 construct: expressed in transfected cells; host or cells: HEK293 (transient)
T4 sequence (Q9BV23 1-337): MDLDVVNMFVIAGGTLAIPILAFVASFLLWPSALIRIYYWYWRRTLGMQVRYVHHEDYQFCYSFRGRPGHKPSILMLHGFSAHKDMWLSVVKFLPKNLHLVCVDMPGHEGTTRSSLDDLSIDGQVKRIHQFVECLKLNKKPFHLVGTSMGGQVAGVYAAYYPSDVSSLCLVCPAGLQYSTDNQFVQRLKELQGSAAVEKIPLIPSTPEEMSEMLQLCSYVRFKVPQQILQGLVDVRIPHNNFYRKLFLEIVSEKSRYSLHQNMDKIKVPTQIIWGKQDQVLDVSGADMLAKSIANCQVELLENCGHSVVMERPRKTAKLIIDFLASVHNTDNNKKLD
Protocol: Glycerol liberated from 1-AG hydrolysis was determined with a sensitive fluorescent assay using lysates of HEK293 cells with transient overexpression of hABHD12, hABHD6 or hMAGL, essentially as previously described. […] Fluorescence (λex 530; λem 590 nm) was monitored using a Tecan Infinite M200 plate reader (Tecan Group Ltd., Männedorf, Switzerland). Inhibitory activities of selected compounds towards FAAH were determined using membranes of hFAAH overexpressing COS-7 cells, essentially as previously described. The final incubation volume (100 µL) contained 1 µg of protein and the substrate concentration was 20 µM (10 nM of ^3H-anandamide having specific activity of 60 Ci/mmol and concentration of 1 mCi/mL).

With `CC1(C)CC[C@]2(C(=O)O)CC[C@]3(C)C(=CC[C@@H]4[C@@]5(C)C[C@@H](O)[C@H](O)C(C)(C)[C@@H]5CC[C@]43C)[C@@H]2C1` [Compound 8, Maslinic acid, reference compound] the “CB1R antagonist activity [35S]GTPγS binding % HU210-evoked response (Mean (range), n=2)” value (CB1R) was 99 (97-102) % HU210-evoked response, the IC50 (hABHD12; three independent experiments, read-out: -logIC50±s.e.m. (converted)) was 1.26 µM and the Emax (hABHD12; read-out: max inhibition (converted)) was 89%. The “TAMRA-FP probe labeling of ABHD12” value (ABHD12) was “selectively inhibited probe labeling of ABHD12; also recorded: dose-dependently inhibit TAMRA-FP labeling of ABHD12 already at 20 µM” and the remaining activity at 10 µM (hABHD6) was > 100%.
